Reference: PubChem BioAssay (NCI)
Where “and” joins values, the source holds several entries; their conditions need not be identical. Equal entries are not always repeated.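 Where inhibition never reached the appropriate level, the endpoint shown equals the highest concentration tested. Otherwise, values were interpolated linearly from a five-concentration, 48-hour dose response in 96-well plates. Here, GI50 denotes the concentration required for 50% inhibition of growth. At the TGI there is no net growth.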

Key:
Assay in all cases: growth of human tumour cells (NCI), 48 h
SR leukemia = system: SR leukemia
OVCAR-5 ovarian = system: OVCAR-5 ovarian
UACC-62 melanoma = system: UACC-62 melanoma
MALME-3M melanoma = system: MALME-3M melanoma
SNB-19 CNS = system: SNB-19 CNS
OVCAR-8 ovarian = system: OVCAR-8 ovarian
MCF7 breast = system: MCF7 breast
HOP-62 NSCLC = system: HOP-62 NSCLC
HT29 colon = system: HT29 colon
MOLT-4 leukemia = system: MOLT-4 leukemia

Row | SMILES | TGI (SR leukemia) [µM] | TGI (OVCAR-5 ovarian) [µM] | TGI (UACC-62 melanoma) [µM] | TGI (MALME-3M melanoma) [µM] | TGI (SNB-19 CNS) [µM] | TGI (OVCAR-8 ovarian) [µM] | TGI (MCF7 breast) [µM] | TGI (HOP-62 NSCLC) [µM] | TGI (HT29 colon) [µM] | TGI (MOLT-4 leukemia) [µM] | GI50 (MCF7 breast) | GI50 (UACC-62 melanoma)
1 | CCOC(=O)C1(C(=O)OCC)OC(C)=NC1(C(=O)OC)C(=O)OC | > 100 | > 100 | > 100 | > 100 | > 100 | > 100 | > 100 | > 100 | > 100 | > 100 |  | 
2 | CC(C)=CC(Cc1ccccc1)S(=O)(=O)c1nc2ccccc2s1 (stereo unspecified) | 5.24 | 36.7 | 46.5 | 32.1 | 32 | 35.1 | 31.5 | 64.3 | 41.7 | 7.95 |  | 
3 | CC(=O)OCC1OC(Nn2c(=O)[nH]c3ccccc3c2=O)C(OC(C)=O)C(OC(C)=O)C1OC(C)=O (stereo unspecified) | > 100 | > 100 | > 100 | > 100 | > 100 | > 100 | > 100 | > 100 | > 100 | > 100 |  | 
4 | N#CC(=N)c1ncn(-c2ccc(N)cc2)c1N | > 100 | > 100 | > 100 | > 100 | > 100 | > 100 | > 100 | > 100 | > 100 | > 100 |  | 
5 | CCOC(=O)C1c2[nH]c3ccccc3c2CCN1C(=O)c1ccc(OC)o1 (stereo unspecified) | > 10 | > 10 |  | 2.78 | > 10 | > 10 | > 10 | > 10 | > 10 | > 10 |  | 
6 | COc1ccccc1C1ON=C(c2ccc([N+](=O)[O-])cc2)N1C12CC3CC(CC(C3)C1)C2 (stereo unspecified) | > 100 | > 100 | > 100 | > 100 | > 100 | > 100 | > 100 | 71.9 | > 100 | > 100 |  | 
7 | CS(=O)(=O)c1ccc(N=C/C=C/Nc2ccc(S(C)(=O)=O)cc2)cc1 | > 100 | > 100 | > 100 | > 100 | > 100 | > 100 | > 100 | > 100 | > 100 | > 100 |  | 
8 | COC(=O)c1cc(C(=CCC[C@H]2CC[C@@]3(C)C(CCC4C3CC[C@@]3(C)C4CC[C@@H]3C(C)CCCC(C)C)C2)c2cc(Cl)c(O)c(C(=O)OC)c2)cc(Cl)c1O (stereo partly specified) | > 10 | > 10 | > 10 | > 10 | > 10 | > 10 | > 10 | > 10 | > 10 | > 10 |  | 
9 | CC(C)NC(=O)N(Nc1ccccc1)C(C)(C)C | > 100 | > 100 | > 100 | > 100 | > 100 | > 100 | > 100 | > 100 | > 100 | > 100 |  | 
10 | C=CCN(C(=O)OC(C)(C)C)[C@H](C)C(=O)N[C@@H](C)C(=O)OC | > 100 | > 100 | > 100 | > 100 | > 100 | > 100 | > 100 | > 100 | > 100 | > 100 |  | 
11 | C/C=C(\C)C(O)C(C)C(O)C/C=C(C)/C=C(\C)C/C(C)=C/C/C=C(\C)C(O)C(C)c1ccc(CCC)c(=O)o1 (stereo unspecified) | > 100 | 37.9 | 26.1 | 27.1 | 42.3 | 48.7 | 22.9 | 30.4 | 3.32 | > 100 |  | 
12 | Cc1ccc(O)c(C2=CC(c3cccc(Cl)c3)SC(N)=N2)c1 (stereo unspecified) | 46.5 | 73.5 | 28.8 | 62.5 | 37.7 | > 100 | > 100 | 64.1 | 46.3 | 61.4 |  | 
13 | COC1CN(C)C(=Nc2cccc3ccccc23)S1 (stereo unspecified) | > 10 | > 10 | > 10 | > 10 | > 10 | > 10 | > 10 | > 10 | > 10 | > 10 |  | 
14 | COC(=O)C(Cc1c[nH]c2ccccc12)NC(=O)c1ccc(-c2ccc(Cl)cc2Cl)o1 (stereo unspecified) | > 100 | > 100 | > 100 | > 100 | > 100 | > 100 | > 100 | > 100 | > 100 | > 100 |  | 
15 | CN(C)C(c1ccccc1)C1COC2Cc3ccccc3C1O2 (stereo unspecified) | > 100 | > 100 | > 100 | > 100 | > 100 | > 100 | > 100 | > 100 | > 100 | > 100 | 84 µM and 23.6 µM | 
16 | CC(=O)OCC1OC(n2c(-c3ccccc3)c(C(C)=O)c(-c3cccc4ccccc34)c(C#N)c2=S)C(OC(C)=O)C(OC(C)=O)C1OC(C)=O (stereo unspecified) | > 100 | > 100 | > 100 | > 100 | > 100 | > 100 | > 100 | > 100 | > 100 | > 100 |  | 80.4 µM and 26.7 µM
17 | CC(C)=CCC/C(C)=C/CC/C(C)=C/CC/C(C)=C/CC/C(C)=C/CC/C(C)=C/CC/C(C)=C/CC/C(C)=C/CC/C(C)=C/CO | > 100 | > 100 | > 100 | > 100 | > 100 | > 100 | > 100 | > 100 | > 100 | > 100 |  | 
